From patent publication US9493537B2, “Compounds with reduced ring size for use in diagnosing and treating melanoma, including metastatic melanoma and methods related to same” (STC.UNM, priority 2009, dated 2016)
Read-outs that look alike come from different tables or passages of the source.

How the values were obtained:
[1] = Biodistribution in B16/F1 melanoma-bearing C57 mice; type: in vivo; conditions: female, C57, mouse, iv, total radioactivity; for tissue uptake at 0.5 h: 0.5 h post-injection; for tissue uptake at 4 h: 4 h post-injection; for tissue uptake at 24 h: 24 h post-injection
Protocol: All the animal studies were conducted in compliance with Institutional Animal Care and Use Committee approval. The mice were housed five animals per cage in sterile micro-isolator cages in a temperature- and humidity-controlled room with a 12-h light/12-h dark schedule. […] C57 mice were subcutaneously inoculated on the right flank with 1×10^6 B16/F1 cells. The weight of tumors reached approximately 0.2 g 10 days post cell inoculation. […] Groups of 5 mice were sacrificed at 0.5, 2, 4 and 24 h post-injection, and tumors and organs of interest were harvested, weighed and counted. Blood values were taken as 6.5% of the whole-body weight. […] The mice were sacrificed at 2 h post-injection. The tumor and organs of interest were harvested, weighed and counted.
All animal studies were conducted in compliance with Institutional Animal Care and Use Committee approval. The pharmacokinetics of ^111In-DOTA-GGNle-CycMSHhex and ^111In-DOTA-GENle-CycMSHhex were determined in B16/F1 melanoma-bearing C57 female mice (Harlan, Indianapolis, Ind.). The C57 mice were subcutaneously inoculated with 1×10^6 B16/F1 cells on the right flank for each mouse to generate B16/F1 melanomas. Ten days post inoculation, the tumor weights reached approximately 0.2 g. Each melanoma-bearing mouse was injected with 0.037 MBq of ^111In-DOTA-GGNle-CycMSHhex or ^111In-DOTA-GENle-CycMSHhex via the tail vein. Groups of 5 mice were sacrificed at 0.5, 2, 4 and 24 h post-injection, and tumors and organs of interest were harvested, weighed and counted. Blood values were taken as 6.5% of the whole-body weight. The specificities of the tumor uptake of ^111In-DOTA-GGNle-CycMSHhex and ^111In-DOTA-GENle-CycMSHhex were determined by co-injecting 10 μg (6.07 nmol) of unlabeled NDP-MSH which is a linear α-MSH peptide analogue with picomolar MC1 receptor binding affinity.

[2] = Metabolites in urine and melanoma by RP-HPLC; type: in vivo, C57 mice; conditions: urine, 2 h post-injection
Protocol: The mouse used for the imaging study (2 h post-injection) described above was euthanized and the urine was collected for identifying the metabolites. The urinary sample was centrifuged at 16,000 g for 5 min prior to the HPLC analysis. The radioactive metabolite in the urine was analyzed by injecting aliquots of urine into the HPLC. A 20-minute gradient of 18-28% acetonitrile/20 mM HCl was used for the urine analysis.
Both melanoma and urine were collected from the mouse used for SPECT/CT imaging to analyze the metabolites of ^111In-DOTA-GGNle-CycMSHhex in melanoma and urine. The tumor was homogenized by a VWR homogenizer for 5 mins. Equal volume of ethanol was added into the tumor sample. The tumor sample was vortexed and then centrifuged at 16,000 g for 5 mins. The supernatant was transferred into a glass test tube and purged with N2 gas for 20 mins to remove the ethanol. Aliquots of the supernatant were injected into HPLC. The urinary sample was directly centrifuged at 16,000 g for 5 mins prior to the HPLC analysis. Thereafter, aliquots of the urine were injected into HPLC. The HPLC gradient described above was used for the analyses of metabolites.

[3] = liver, 0.037 MBq, read-out: Liver uptake
[4] = lung, 0.037 MBq, read-out: Lung uptake
[5] = muscle, 0.037 MBq, read-out: Muscle uptake
[6] = pancreas, 0.037 MBq, read-out: Pancreas uptake
[7] = skin, 0.037 MBq, read-out: Skin uptake
[8] = spleen, 0.037 MBq, read-out: Spleen uptake
[9] = stomach, 0.037 MBq, read-out: Stomach uptake
[10] = tumor, 0.037 MBq, read-out: Tumor uptake

tissue uptake at 2 h ([1]; kidneys, 2 h post-injection, NDP blockade, read-out: Kidneys uptake): 11.6 ± 0.56 %ID/g | tissue uptake at 0.5 h [1, 3]: 2.75 ± 0.26 %ID/g | tissue uptake at 2 h ([1]; liver, 0.037 MBq, 2 h post-injection, read-out: Liver uptake): 1.46 ± 0.2 %ID/g | tissue uptake at 4 h [1, 3]: 1.72 ± 0.07 %ID/g | tissue uptake at 24 h [1, 3]: 1.89 ± 0.14 %ID/g | tissue uptake at 2 h ([1]; liver, 2 h post-injection, L-lysine co-injection, read-out: Liver uptake): 1.42 ± 0.3 %ID/g | tissue uptake at 2 h ([1]; liver, 2 h post-injection, NDP blockade, read-out: Liver uptake): 1.46 ± 0.08 %ID/g | tissue uptake at 0.5 h [1, 4]: 2.45 ± 0.83 %ID/g | tissue uptake at 2 h ([1]; lung, 0.037 MBq, 2 h post-injection, read-out: Lung uptake): 0.32 ± 0.1 %ID/g | tissue uptake at 4 h [1, 4]: 0.1 ± 0.05 %ID/g | tissue uptake at 24 h [1, 4]: 0.1 ± 0.03 %ID/g | tissue uptake at 2 h ([1]; lung, 2 h post-injection, L-lysine co-injection, read-out: Lung uptake): 0.75 ± 0.21 %ID/g | tissue uptake at 2 h ([1]; lung, 2 h post-injection, NDP blockade, read-out: Lung uptake): 0.3 ± 0.06 %ID/g | tissue uptake at 0.5 h [1, 5]: 0.6 ± 0.22 %ID/g | tissue uptake at 2 h ([1]; muscle, 0.037 MBq, 2 h post-injection, read-out: Muscle uptake): 0.15 ± 0.08 %ID/g | tissue uptake at 4 h [1, 5]: 0.1 ± 0.08 %ID/g | tissue uptake at 24 h [1, 5]: 0.03 ± 0.01 %ID/g | tissue uptake at 2 h ([1]; muscle, 2 h post-injection, L-lysine co-injection, read-out: Muscle uptake): 0.1 ± 0.08 %ID/g | tissue uptake at 2 h ([1]; muscle, 2 h post-injection, NDP blockade, read-out: Muscle uptake): 0.02 ± 0.01 %ID/g | tissue uptake at 0.5 h [1, 6]: 1.18 ± 0.38 %ID/g | tissue uptake at 2 h ([1]; pancreas, 0.037 MBq, 2 h post-injection, read-out: Pancreas uptake): 0.14 ± 0.02 %ID/g | tissue uptake at 4 h [1, 6]: 0.16 ± 0.02 %ID/g | tissue uptake at 24 h [1, 6]: 0.23 ± 0.08 %ID/g | tissue uptake at 2 h ([1]; pancreas, 2 h post-injection, L-lysine co-injection, read-out: Pancreas uptake): 0.21 ± 0.05 %ID/g | tissue uptake at 2 h ([1]; pancreas, 2 h post-injection, NDP blockade, read-out: Pancreas uptake): 0.12 ± 0.02 %ID/g | tissue uptake at 0.5 h [1, 7]: 4.11 ± 0.72 %ID/g | tissue uptake at 2 h ([1]; skin, 0.037 MBq, 2 h post-injection, read-out: Skin uptake): 0.66 ± 0.23 %ID/g | tissue uptake at 4 h [1, 7]: 0.53 ± 0.05 %ID/g | tissue uptake at 24 h [1, 7]: 0.64 ± 0.16 %ID/g | tissue uptake at 2 h ([1]; skin, 2 h post-injection, L-lysine co-injection, read-out: Skin uptake): 1.02 ± 0.09 %ID/g | tissue uptake at 2 h ([1]; skin, 2 h post-injection, NDP blockade, read-out: Skin uptake): 0.29 ± 0.02 %ID/g | tissue uptake at 0.5 h [1, 8]: 1.09 ± 0.33 %ID/g | tissue uptake at 2 h ([1]; spleen, 0.037 MBq, 2 h post-injection, read-out: Spleen uptake): 0.41 ± 0.13 %ID/g | tissue uptake at 4 h [1, 8]: 0.47 ± 0.13 %ID/g | tissue uptake at 24 h [1, 8]: 0.32 ± 0.08 %ID/g | tissue uptake at 2 h ([1]; spleen, 2 h post-injection, L-lysine co-injection, read-out: Spleen uptake): 0.43 ± 0.07 %ID/g | tissue uptake at 2 h ([1]; spleen, 2 h post-injection, NDP blockade, read-out: Spleen uptake): 0.44 ± 0.02 %ID/g | tissue uptake at 0.5 h [1, 9]: 3.2 ± 0.98 %ID/g | tissue uptake at 2 h ([1]; stomach, 0.037 MBq, 2 h post-injection, read-out: Stomach uptake): 1.25 ± 0.24 %ID/g | tissue uptake at 4 h [1, 9]: 1.49 ± 0.12 %ID/g | tissue uptake at 24 h [1, 9]: 1.34 ± 0.42 %ID/g | tissue uptake at 2 h ([1]; stomach, 2 h post-injection, L-lysine co-injection, read-out: Stomach uptake): 1.64 ± 0.78 %ID/g | tissue uptake at 2 h ([1]; stomach, 2 h post-injection, NDP blockade, read-out: Stomach uptake): 0.36 ± 0.14 %ID/g | tissue uptake at 0.5 h [1, 10]: 24.9 ± 4.58 %ID/g | tissue uptake at 2 h ([1]; tumor, 0.037 MBq, 2 h post-injection, read-out: Tumor uptake): 19.4 ± 1.65 %ID/g | tissue uptake at 4 h [1, 10]: 17 ± 2.54 %ID/g | tissue uptake at 24 h [1, 10]: 10.5 ± 1.11 %ID/g | tissue uptake at 2 h ([1]; tumor, 2 h post-injection, L-lysine co-injection, read-out: Tumor uptake): 14.5 ± 3.25 %ID/g | tissue uptake at 2 h ([1]; tumor, 2 h post-injection, NDP blockade, read-out: Tumor uptake): 0.81 ± 0.03 %ID/g | dose excreted at 2 h ([1]; urine, 0.037 MBq, 2 h post-injection, read-out: Urine, percent injected dose): 82.2 ± 5.83% | urinary metabolites by HPLC [2]: remained intact
SMILES: CCCC[C@H](NC(=O)CN1CCN(CC(=O)O)CCN(CC(=O)O)CCN(CC(=O)O)CC1)C(=O)N[C@H]1CC(=O)NCCCC[C@@H](C(N)=O)NC(=O)[C@H](Cc2c[nH]c3ccccc23)NC(=O)[C@H](CCCNC(=N)N)NC(=O)[C@@H](Cc2ccccc2)NC(=O)[C@H](Cc2c[nH]cn2)NC1=O [^111In-DOTA-Nle-CycMSHhex, metal not drawn]
